Assay results taken from patent US20230365577A1, “Photodynamic Therapy and Diagnosis” (RMW CHO Group Limited, priority 2020, published 2023).
Counter-ions that a name gives are not always drawn. Like-named read-outs stand apart in the source and are kept apart here.

How the values were obtained:
[1] = Singlet oxygen (1O2) production rate; format: physicochemical
Excerpt: The production of singlet oxygen (^1O2), cellular phototoxicity and light-independent cytotoxicity (“dark toxicity”) of a number of phyllochlorin analogues were compared against chlorin e4 disodium and Talaporfin sodium (mono-L-aspartyl chlorin e6), the active ingredient of Laserphyrin™.

[2] = tested on: SKOV3 ovarian cancer cells; experiment: Phototoxicity in SKOV3 cells (652 nm laser, AlamarBlue viability); format: cell-based, Human
Protocol: (§1) Human ovarian cancer cell line SKOV3 (ATCC #HTB-77) was maintained in Dulbecco's Modified Eagle Medium/Nutrient Mixture F-12 (DMEM/F-12), supplemented with 10% v/v Fetal Bovine Serum, 100 U/mL penicillin and 100 µg/mL streptomycin. Monolayer cultures were grown in a humidified incubator at 37° C. with 5% CO2.
(§2) For in vitro experiments, photosensitizers (stock solution 5.5 mM in 100% DMSO) were diluted in cell culture media (Dulbecco's Modified Eagle Medium/Nutrient Mixture F-12) supplemented with 10% v/v Fetal Bovine Serum, 100 U/mL penicillin, 100 µg/mL streptomycin and 10% w/v Kollidon-12. Once cells had reached ˜80% confluence, spent media was replaced with media containing photosensitizer and cells were incubated for the desired period of time to allow photosensitizer uptake.
(§3) SKOV3 cells were seeded in 96-well black wall plates (Greiner #655090) at a cell density of 5000 cells in 100 μl culture medium per well. On reaching ˜60% confluence, so media was aspirated and replaced with fresh media containing the relevant phyllochlorin analogue from 0-100 μM in DMSO. Cells were incubated for a further 24 hours, allowing uptake of phyllochlorin analogues.
To test for phototoxicity, cells incubated with phyllochlorin analogues (0-10 μM in DMSO) had culture media replaced after 24 hours (as above) and were then exposed to a 652 nm laser (Invion) with laser density at 50 mW/cm^2 for 5 mins (total 15 J/cm^2). Following activation, cells were cultured for a further 24 hours. Media was then replaced with fresh media containing AlamarBlue, and % viable cells remaining assessed as above. Controls included cells treated with phyllochlorin analogues but not activated by laser light; cells without phyllochlorin analogue treatment but with laser light; and untreated controls. All measurements were made in quadruplicate.
(§4) For comparative purposes, phyllochlorin analogues were tested and compared against both chlorin e4 disodium and Talaporfin sodium, a clinically approved photosensitizer used in the photodynamic treatment of lung cancers. Phototoxicity IC90 values and dark toxicity IC10 values were calculated using a log[inhibitor]-vs normalized response dose curve with variable slope, using the formula Y=100/(1+(IC90/X)^HillSlope (phototoxicity IC90) or Y=100/(1+(IC10/X)^HillSlope (dark toxicity IC10).

[3] = tested on: SKOV3 ovarian cancer cells; experiment: Inherent cytotoxicity (dark toxicity) in SKOV3 cells (AlamarBlue viability); format: cell-based, Human
Protocol: as §1, §2
as §3, with “confluence,” for “confluence, so”
To test for inherent cytotoxicity (i.e. “dark toxicity”) of the phyllochlorin analogue the culture media was replaced after 24 hours with fresh media containing 10% (v/v) AlamarBlue Cell Viability Reagent (ThermoFisher) and cells incubated at 37° C. for 6 hours. Untreated cells were used as a control. Fluorescence (Ex 555 nm/Em 596 nm) was measured using a Cytation 3 Multimode Plate Reader (Biotek), and cytotoxicity assessed according to the % viable cells remaining. All measurements were made in quadruplicate.
as §4

[4] = SKOV3, 24 h uptake, 652 nm laser 50 mW/cm2 5 mins (15 J/cm2), viability 24 h later, read-out: Cellular Toxicity: Phototoxicity IC90
[5] = Homo sapiens, SK-OV-3, light or radiation study, SKOV3, 24 h uptake, 652 nm laser 50 mW/cm2 5 mins (15 J/cm2), viability 24 h later, read-out: Cellular Toxicity: Phototoxicity IC90
[6] = Homo sapiens, SK-OV-3, light or radiation study, SKOV3, read-out: Phototoxicity apparent IC90
[7] = Homo sapiens, SK-OV-3, light or radiation study, read-out: Cellular Toxicity: Phototoxicity IC90, SKOV3, 24 h uptake, 652 nm laser 50 mW/cm2 5 mins (15 J/cm2), viability 24 h later

Compound	Singlet Oxygen Production (slope) 1O2 [1]	Cellular Toxicity: Dark toxicity IC10 ([3]; human, 24 h) [nM]	IC90 [2, 5] [nM]	also measured
3-((7S,8S)-18-ethyl-2,5,8,12,17-pentamethyl-13-vinyl-7H,8H-porphyrin-7-yl)-N-(2-(2-hydroxyethoxy)ethyl)-N-methylpropanamide zinc complex [Compound 21]	423.4	–	–	Fold decrease in the rate of ROS production on Zn2+ complexation ([1]; compound 21 versus compound 18): ~2.5 fold; IC90 [2, 4]: 4770 nM; Cellular Toxicity: Dark toxicity IC10 [3]: 8170 nM
3-((7S,8S)-18-ethyl-2,5,8,12,17-pentamethyl-13-vinyl-7H,8H-porphyrin-7-yl)-N-methyl-N-(3-(((2S,3R,4S,5S,6R)-3,4,5-trihydroxy-6-(hydroxymethyl)tetrahydro-2H-pyran-2-yl)thio)propyl)propanamide zinc complex [Compound 19]	404.7	–	–	IC90 [2, 4]: 12800 nM; Cellular Toxicity: Dark toxicity IC10 [3]: 20200 nM
C=Cc1c(C)c2cc3nc(c(C)c4cc(C)c(cc5nc(cc1[nH]2)C(C)=C5CC)[nH]4)[C@@H](CCC(=O)O)[C@@H]3C [Compound 1a, phyllochlorin potassium salt]	–	12410	–	Singlet Oxygen Production (slope) 1O2 ([1]; potassium salt): 760.9; IC90 ([2]; SKOV3, 24 h uptake, 652 nm laser 50 mW/cm2 5 mins (15 J/cm2), viability 24 h later, potassium salt, read-out: Cellular Toxicity: Phototoxicity IC90): 470 nM
C=Cc1c(C)c2cc3nc(c(C)c4cc(C)c(cc5nc(cc1[nH]2)C(C)=C5CC)[nH]4)[C@@H](CCC(=O)O)[C@@H]3C [Compound 1b, phyllochlorin lithium salt]	–	22130	–	Singlet Oxygen Production (slope) 1O2 ([1]; lithium salt): 841.7; IC90 ([2]; SKOV3, 24 h uptake, 652 nm laser 50 mW/cm2 5 mins (15 J/cm2), viability 24 h later, lithium salt, read-out: Cellular Toxicity: Phototoxicity IC90): 1400 nM
C=Cc1c(C)c2cc3nc(c(C)c4cc(C)c(cc5nc(cc1[nH]2)C(C)=C5CC)[nH]4)[C@@H](CCC(=O)O)[C@@H]3C [Compound 1d, phyllochlorin arginine salt]	833.9	18150	–	IC90 ([2]; read-out: Cellular Toxicity: Phototoxicity IC90, SKOV3, 24 h uptake, 652 nm laser 50 mW/cm2 5 mins (15 J/cm2), viability 24 h later): 1420 nM
C=Cc1c(C)c2cc3nc(c(C)c4cc(C)c(cc5nc(cc1[nH]2)C(C)=C5CC)[nH]4)[C@@H](CCC(=O)O)[C@@H]3C [Compound 1e, phyllochlorin meglumine salt]	938.8	20730	–	IC90 [2, 4]: 1790 nM
C=Cc1c(C)c2cc3nc(c(C)c4cc(C)c(cc5nc(cc1[nH]2)C(C)=C5CC)[nH]4)[C@@H](CCC(=O)N(C)CCOCCOCCO)[C@@H]3C [Compound 4, 3-((7S,8S)-18-ethyl-2,5,8,12,17-pentamethyl-13-vinyl-7H,8H-porphyrin-7-yl)-N-(2-(2-(2-hydroxyethoxy)ethoxy)ethyl)-N-methylpropanamide]	2191.0	16410	120	–
C=Cc1c(C)c2cc3nc(c(C)c4cc(C)c(cc5nc(cc1[nH]2)C(C)=C5CC)[nH]4)[C@@H](CCC(=O)N(C)CCCO)[C@@H]3C [Compound 5, 3-((7S,8S)-18-ethyl-2,5,8,12,17-pentamethyl-13-vinyl-7H,8H-porphyrin-7-yl)-N-(3-hydroxypropyl)-N-methylpropanamide]	2385.0	20820	50	Rate of ROS production relative to chlorin e4 disodium and Talaporfin sodium [1]: more than double; IC90 [2, 6]: < 100 nM
C=Cc1c(C)c2cc3nc(c(C)c4cc(C)c(cc5nc(cc1[nH]2)C(C)=C5CC)[nH]4)[C@@H](CCC(=O)N(C)CCCCCO)[C@@H]3C [Compound 7, 3-((7S,8S)-18-ethyl-2,5,8,12,17-pentamethyl-13-vinyl-7H,8H-porphyrin-7-yl)-N-(5-hydroxypentyl)-N-methylpropanamide]	1494.0	14270	50	IC90 [2, 6]: < 100 nM
C=Cc1c(C)c2cc3nc(c(C)c4cc(C)c(cc5nc(cc1[nH]2)C(C)=C5CC)[nH]4)[C@@H](CCC(=O)N(C)CCCCCS[C@@H]1O[C@H](CO)[C@@H](O)[C@H](O)[C@H]1O)[C@@H]3C [Compound 8, 3-((7S,8S)-18-ethyl-2,5,8,12,17-pentamethyl-13-vinyl-7H,8H-porphyrin-7-yl)-N-methyl-N-(5-(((2S,3R,4S,5S,6R)-3,4,5-trihydroxy-6-(hydroxymethyl)tetrahydro-2H-pyran-2-yl)thio)pentyl)propanamide]	1314.0	12550	60	IC90 [2, 6]: < 100 nM; Fold increase in cellular phototoxicity compared to compound 2 ([2]; SKOV3, IC90): approximately 4 fold
C=Cc1c(C)c2cc3nc(c(C)c4cc(C)c(cc5nc(cc1[nH]2)C(C)=C5CC)[nH]4)[C@@H](CCC(=O)N(C)CCC[S+]([O-])[C@@H]1O[C@H](CO)[C@@H](O)[C@H](O)[C@H]1O)[C@@H]3C (stereo partly drawn) [Compound 9, 3-((7S,8S)-18-ethyl-2,5,8,12,17-pentamethyl-13-vinyl-7H,8H-porphyrin-7-yl)-N-methyl-N-(3-(((2S,3R,4S,5S,6R)-3,4,5-trihydroxy-6-(hydroxymethyl)tetrahydro-2H-pyran-2-yl)thio)propyl)propanamide sulphoxide]	1396.0	70240	–	IC90 [2, 7]: 190 nM
C=Cc1c(C)c2cc3nc(c(C)c4cc(C)c(cc5nc(cc1[nH]2)C(C)=C5CC)[nH]4)[C@@H](CCC(=O)N(C)CCO)[C@@H]3C [Compound 10, 3-((7S,8S)-18-ethyl-2,5,8,12,17-pentamethyl-13-vinyl-7H,8H-porphyrin-7-yl)-N-(2-hydroxyethyl)-N-methylpropanamide]	1691.0	14940	160	–
C=Cc1c(C)c2cc3nc(c(C)c4cc(C)c(cc5nc(cc1[nH]2)C(C)=C5CC)[nH]4)[C@@H](CCC(=O)N(C)CCCS[C@@H]1O[C@H](COC(C)=O)[C@@H](OC(C)=O)[C@H](OC(C)=O)[C@H]1OC(C)=O)[C@@H]3C [Compound 11, (2R,3R,4S,5R,6S)-2-(acetoxymethyl)-6-((3-(3-((7S,8S)-18-ethyl-2,5,8,12,17-pentamethyl-13-vinyl-7H,8H-porphyrin-7-yl)-N-methylpropanamido)propyl)thio)tetrahydro-2H-pyran-3,4,5-triyl triacetate]	1434.0	29000	–	IC90 [2, 7]: 500 nM
C=Cc1c(C)c2cc3nc(c(C)c4cc(C)c(cc5nc(cc1[nH]2)C(C)=C5CC)[nH]4)[C@@H](CCC(=O)N(C)CCCS[C@@H]1O[C@H](COC(=O)[C@@H](N)C(C)C)[C@@H](O)[C@H](O)[C@H]1O)[C@@H]3C [Compound 12, ((2R,3S,4S,5R,6S)-6-((3-(3-((7S,8S)-18-ethyl-2,5,8,12,17-pentamethyl-13-vinyl-7H,8H-porphyrin-7-yl)-N-methylpropanamido)propyl)thio)-3,4,5-trihydroxytetrahydro-2H-pyran-2-yl)methyl L-valinate hydrochloride]	1121.0	28360	–	IC90 [2, 7]: 180 nM
C=Cc1c(C)c2cc3nc(c(C)c4cc(C)c(cc5nc(cc1[nH]2)C(C)=C5CC)[nH]4)[C@@H](CCC(=O)N[C@H]1C(O)O[C@H](CO)[C@@H](O)[C@@H]1O)[C@@H]3C (stereo partly drawn) [Compound 13, phyllochlorin 2-deoxyglucosamine-propylamide]	1423.0	13020	–	IC90 [2, 7]: 120 nM
